According to patent publication EP1337551B1, “SUBSTANCE P ANALOGS FOR THE TREATMENT OF CANCER” (DABUR PHARMA LTD., priority 2000, dated 2002):
Residues, ends and D or L forms follow the SMILES beside them.

How the values were obtained:
Assay in all cases: In vitro cytotoxic activity of lipo conjugates, MTT assay, 48 hours
Format in all cases: cell-based
[1] = system: HeP2 (Larngeal)
Description: (§1) The cytotoxic effect of lipo-conjugates of substance P analogs SEQ ID NO: 6, SEQ ID NO: 7 and SEQ ID NO: 8, was studied by MTT assay which is based on the principle of uptake of MTT [3-[4,5-dimethylthiazol-2-yl]-2,5-diphenyl tetrazolium bromide], a tetrazolium salt by the metabolically active cells where it is metabolized by active mitochondria in to a blue colored formazan product which can be read spectrophotometrically. Briefly, tumor cells - KB (Oral squamous), U87MG (Blioblastoma), HBL100 (Breast), HeP2 (Larngeal), ECV304 (Endothelial), PA-1 (Ovary) and L132 (Lunng) were incubated with the peptide analogs for 48 hours at 37°C in a 96-well culture plate, followed by the addition of 100 µg MTT and further incubation of 1 hour. The formazan crystals formed inside the cells were dissolved with a detergent comprising of 10% Sodium dodecyl sulfate and 0.01 N HCl and optical density read on a multiscan ELISA reader. The optical density was directly proportional to the number of proliferating and metabolically active cells. SEQ ID NO: 6

[2] = system: HBL100 (Breast)
Description: as §1

[3] = system: PA-1 (Ovary)
Description: as §1

[4] = system: L132 (Lunng)
Description: as §1

[5] = system: KB (Oral squamous)
Description: as §1

[6] = system: U87MG (Blioblastoma)
Description: as §1

[7] = system: ECV304 (Endothelial)
Description: as §1

| Compound | Percentage cytotoxicity at different concentrations ([1]; 1nM) [%] | Percentage cytotoxicity at different concentrations ([1]; 10nM) [%] | Percentage cytotoxicity at different concentrations ([1]; 100nM) [%] | Percentage cytotoxicity at different concentrations ([1]; 1µM) [%] | Percentage cytotoxicity at different concentrations ([2]; 1nM) [%] | Percentage cytotoxicity at different concentrations ([2]; 10nM) [%] | Percentage cytotoxicity at different concentrations ([2]; 100nM) [%] | Percentage cytotoxicity at different concentrations ([3]; 1nM) [%] | Percentage cytotoxicity at different concentrations ([3]; 10nM) [%] | Percentage cytotoxicity at different concentrations ([3]; 100nM) [%] | Percentage cytotoxicity at different concentrations ([3]; 1µM) [%] | Percentage cytotoxicity at different concentrations ([4]; 1nM) [%] | Percentage cytotoxicity at different concentrations ([4]; 10nM) [%] | Percentage cytotoxicity at different concentrations ([4]; 100nM) [%] | Percentage cytotoxicity at different concentrations ([4]; 1µM) [%] | Percentage cytotoxicity at different concentrations ([5]; 1nM) [%] | Percentage cytotoxicity at different concentrations ([5]; 10nM) [%] | Percentage cytotoxicity at different concentrations ([5]; 100nM) [%] | Percentage cytotoxicity at different concentrations ([5]; 1µM) [%] | Percentage cytotoxicity at different concentrations ([6]; 1nM) [%] | further results |
| --- | --- | --- | --- | --- | --- | --- | --- | --- | --- | --- | --- | --- | --- | --- | --- | --- | --- | --- | --- | --- | --- |
| CCCCCCCC(=O)N[C@H](CCCNC(=N)N)C(=O)N1CCC[C@H]1C(=O)N[C@@H](CCCCN)C(=O)N1CCC[C@H]1C(=O)N[C@H](Cc1ccccc1)C(=O)N[C@@H](CCC(N)=O)C(=O)N[C@H](Cc1c[nH]c2ccccc12)C(=O)N[C@@H](Cc1ccccc1)C(=O)N[C@H](Cc1c[nH]c2ccccc12)C(=O)N[C@@H](CC(C)C)C(=O)NC1(C(N)=O)CCCC1 [SEQ ID NO: 8, Octanoyl-D-Arg-Pro-Lys-Pro-D-Phe-Gln-D-Trp-Phe-D-Trp-Leu-Ac5c-NH2] (HELM PEPTIDE1{[CCCCCCCC(=O)[*:2]].[dR].P.K.P.[dF].Q.[dW].F.[dW].L.[O=C(C1(N[*:1])CCCC1)[*:2]].[am]}$$$$V2.0) | 12.5 ± 3.2 | 15.5 ± 4.4 | 24.9 ± 2.5 | 12.9 ± 3.4 | 9.0 ± 4.5 | 28.6 ± 3.8 | 30.6 ± 1.5 | 22.1 ± 3.4 | 26.9 ± 3.4 | 39.0 ± 2.6 | 34.4 ± 3.4 | 11.9 ± 4.9 | 27.5 ± 3.5 | 16.9 ± 3.6 | 18.6 ± 2.4 | 28.0 ± 3.5 | 29.0 | 23.0 ± 3.2 | 19.0 ± 4.3 | 23.9 ± 3.3 | Percentage cytotoxicity at different concentrations ([2]; 1µM): 25.8 ± 1.4%; Percentage cytotoxicity at different concentrations ([6]; 10nM): 33.9 ± 2.2%; Percentage cytotoxicity at different concentrations ([6]; 100nM): 28.9 ± 1.4%; Percentage cytotoxicity at different concentrations ([6]; 1µM): 21.8 ± 3.4%; Percentage cytotoxicity at different concentrations ([7]; 1nM): 16.9 ± 3.5%; Percentage cytotoxicity at different concentrations ([7]; 10nM): 31.9 ± 3.3%; Percentage cytotoxicity at different concentrations ([7]; 100nM): 24.6 ± 2.3%; Percentage cytotoxicity at different concentrations ([7]; 1µM): 17.9 ± 2.4% |
| CC(=O)N[C@H](CCCNC(=N)N)C(=O)N1CCC[C@H]1C(=O)N[C@@H](CCCCN)C(=O)N1CCC[C@H]1C(=O)N[C@H](Cc1ccccc1)C(=O)N[C@@H](CCC(N)=O)C(=O)N[C@H](Cc1c[nH]c2ccccc12)C(=O)N[C@@H](Cc1ccccc1)C(=O)N[C@H](Cc1c[nH]c2ccccc12)C(=O)N[C@@H](CC(C)C)C(=O)NC1(C(N)=O)CCCC1 [SEQ ID NO: 6, Acetyl-D-Arg-Pro-Lys-Pro-D-Phe-Gln-D-Trp-Phe-D-Trp-Leu-Ac5c-NH2] (HELM PEPTIDE1{[ac].[dR].P.K.P.[dF].Q.[dW].F.[dW].L.[O=C(C1(N[*:1])CCCC1)[*:2]].[am]}$$$$V2.0) | 10.0 ± 3.2 | 14.8 ± 4.4 | 24.9 ± 1.5 | 13.8 ± 2.4 | 28.5 ± 4.5 | 28.4 ± 1.8 | 31.8 ± 1.5 | 8.0 ± 24 | 22.0 ± 3.4 | 25.4 ± 2.6 | 13.9 ± 3.3 | 14.9 ± 2.9 | 24.7 ± 3.2 | 19.5 ± 4.6 | 19.7 ± 2.5 | 28.0 ± 2.3 | 29.0 ± 1.3 | 18.0 ± 2.6 | 2.0 ± 1.3 | 26.9 ± 3.5 | Percentage cytotoxicity at different concentrations ([6]; 10nM): 32.9 ± 2.4%; Percentage cytotoxicity at different concentrations ([6]; 100nM): 34.7 ± 1.9%; Percentage cytotoxicity at different concentrations ([6]; 1µM): 31.8 ± 3.2%; Percentage cytotoxicity at different concentrations ([7]; 1nM): 9.0 ± 3.7%; Percentage cytotoxicity at different concentrations ([7]; 10nM): 13.8 ± 3.3%; Percentage cytotoxicity at different concentrations ([7]; 100nM): 15.9 ± 2.3%; Percentage cytotoxicity at different concentrations ([7]; 1µM): 12.9 ± 2.2% |
